US11840686B2, “Modulation of prekallikrein (PKK) expression” (Ionis Pharmaceuticals, Inc., priority 2013, dated 2023)
Strand notation (5' to 3'): a small letter for the sugar, then the base; units joined by * are phosphorothioate-linked, units joined directly phosphodiester-linked; [ ] holds rarer units or linkages, { } end groups; capitals alone tell only the bases. e = 2'-O-(2-methoxyethyl) (MOE); [5mC] = 5-methylcytosine; d = 2'-deoxy (DNA)

What was measured:
human PKK mRNA [1] = assay: Antisense inhibition of human PKK mRNA in HepaRG cells, 5,000 nM (Example 2); assay type: cell-based
In short: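 HepaRG cells (20,000/well) electroporated with 5,000 nM MOE gapmer (phosphorothioate backbone, 5-methylcytosines) and harvested after ~24 h. PKK mRNA measured by qRT-PCR with primer probe set RTS3454, normalized to RIBOGREEN total RNA; percent inhibition versus untreated cells.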

human PKK mRNA [2] = assay: Dose-dependent antisense inhibition of human PKK in HepaRG cells, 0.19-5.00 uM (Example 5); assay type: cell-based; conditions: HepaRG cells; for percent inhibition of PKK at 0.19 μM / percent inhibition of PKK at 0.56 μM / percent inhibition of PKK at 1.67 μM / percent inhibition of PKK at 5.00 μM: electroporation, approximately 16 hours
Method: Cells were plated at a density of 20,000 cells per well and transfected using electroporation with 0.19 μM, 0.56 μM, 1.67 μM, and 5.00 μM concentrations of antisense oligonucleotide. After a treatment period of approximately 16 hours, RNA was isolated from the cells and PKK mRNA levels were measured by quantitative real-time PCR. Human PKK primer probe set RTS3454 was used to measure mRNA levels. PKK mRNA levels were adjusted according to total RNA content, as measured by RIBOGREEN®. The antisense oligonucleotides were tested in a series of experiments that had similar culture conditions.
The half maximal inhibitory concentration (IC50) of each oligonucleotide is also presented.

[3] = 4 point dose response, Table 38
[4] = HepaRG cells, 5,000 nM antisense oligonucleotide, 5-10-5 gapmers, Table 16
[5] = 4 point dose response, Table 40

Row | Substance | percent inhibition of PKK at 0.19 μM (human PKK mRNA [2]; Table 38) [%] | percent inhibition of PKK at 0.56 μM (human PKK mRNA [2]; Table 38) [%] | percent inhibition of PKK at 1.67 μM (human PKK mRNA [2]; Table 38) [%] | percent inhibition of PKK at 5.00 μM (human PKK mRNA [2]; Table 38) [%] | IC50 (human PKK mRNA [2]; [3]) [nM] | % inhibition (human PKK mRNA [1]; [4]) [%] | percent inhibition of PKK at 0.19 μM (human PKK mRNA [2]; Table 40) [%] | percent inhibition of PKK at 0.56 μM (human PKK mRNA [2]; Table 40) [%] | percent inhibition of PKK at 1.67 μM (human PKK mRNA [2]; Table 40) [%] | percent inhibition of PKK at 5.00 μM (human PKK mRNA [2]; Table 40) [%] | IC50 (human PKK mRNA [2]; [5]) [nM] | other results
1 | 547637 (eA*eG*eT*eA*eT*d[5mC]*dA*d[5mC]*dT*dG*dT*dA*d[5mC]*dT*dA*eG*eT*eT*eT*eT; antisense) [compound 547637] | – | – | – | – | – | – | – | – | – | – | – | % inhibition (human PKK mRNA [1]; human PKK mRNA, HepaRG cells, 5-10-5 motif oligonucleotides targeting SEQ ID NO: 1 and 10): 88%; percent inhibition of PKK at 0.19 μM (human PKK mRNA [2]; Table 37): 10%; percent inhibition of PKK at 0.56 μM (human PKK mRNA [2]; Table 37): 21%; percent inhibition of PKK at 1.67 μM (human PKK mRNA [2]; Table 37): 36%; percent inhibition of PKK at 5.00 μM (human PKK mRNA [2]; Table 37): 82%; IC50 (human PKK mRNA [2]; 4 point dose response, Table 37): 1800 nM
2 | 546834 (eA*eA*e[5mC]*eT*e[5mC]*dT*dA*dA*d[5mC]*dA*dG*dT*dA*dT*d[5mC]*eA*e[5mC]*eT*eG*eT; antisense) [compound 546834] | 1 | 0 | 30 | 83 | 2300 | – | – | – | – | – | – | % inhibition (human PKK mRNA [1]; Table 13, human PKK mRNA in HepaRG cells, 5-10-5 gapmers): 86%
3 | 547276 (antisense e[5mC]*eA*eA*eT*eT*dG*d[5mC]*dT*dT*d[5mC]*dT*dT*dG*dG*dA*eG*eG*eT*eG*eA) [compound 547276] | – | – | – | – | – | – | – | – | – | – | – | % inhibition (human PKK mRNA [1]; HepaRG cells, electroporation with 5,000 nM antisense oligonucleotide, approximately 24 hours, PKK mRNA by RT-PCR (RTS3454), relative to untreated control cells, Table 5 experiment): 93%; percent inhibition of PKK at 0.19 μM (human PKK mRNA [2]; Table 35): 35%; percent inhibition of PKK at 0.56 μM (human PKK mRNA [2]; Table 35): 44%; percent inhibition of PKK at 1.67 μM (human PKK mRNA [2]; Table 35): 71%; percent inhibition of PKK at 5.00 μM (human PKK mRNA [2]; Table 35): 77%; IC50 (human PKK mRNA [2]; 4 point dose response, Table 35): 600 nM; percent inhibition of PKK mRNA, 0.19 μM (human PKK mRNA [2]; 0.19 μM antisense oligonucleotide): 6%; percent inhibition of PKK mRNA, 0.56 μM (human PKK mRNA [2]; 0.56 μM antisense oligonucleotide): 3%; percent inhibition of PKK mRNA, 1.67 μM (human PKK mRNA [2]; 1.67 μM antisense oligonucleotide): 53%; percent inhibition of PKK mRNA, 5.00 μM (human PKK mRNA [2]; 5.00 μM antisense oligonucleotide): 68%; IC50 (human PKK mRNA [2]; 0.19-5.00 μM): 2200 nM
4 | 547712 (antisense e[5mC]*e[5mC]*e[5mC]*e[5mC]*eA*dT*dG*dG*dT*dA*d[5mC]*d[5mC]*dA*dA*dA*eG*e[5mC]*e[5mC]*eA*eT) [compound 547712] | – | – | – | – | – | 79 | 0 | 5 | 21 | 62 | 3800 | –
5 | 547722 (e[5mC]*eT*e[5mC]*e[5mC]*eA*dG*dT*d[5mC]*dA*d[5mC]*d[5mC]*dA*d[5mC]*d[5mC]*dA*eT*eT*eG*e[5mC]*e[5mC]; antisense) [compound 547722] | – | – | – | – | – | 80 | 0 | 15 | 32 | 73 | 2400 | –
6 | 546198 (antisense eT*e[5mC]*eT*eT*e[5mC]*dA*dA*d[5mC]*dA*d[5mC]*dT*dG*d[5mC]*dT*dA*eA*e[5mC]*e[5mC]*eT*eT) [compound 546198] | 7 | 3 | 45 | 92 | 1300 | – | – | – | – | – | – | % inhibition (human PKK mRNA [1]; HepaRG cells, electroporation with 5,000 nM antisense oligonucleotide, approximately 24 hours, PKK mRNA by RT-PCR (RTS3454), relative to untreated control cells, Table 6 experiment): 85%
